Laboratory results: patent US20240368133A1, “Compounds for the Treatment of Pain, in Particular, Neuropathic Pain, and/or Other Diseases or Disorders that are Associated with AT2R and/or AT2R Mediated Signaling” (Confo Therapeutics N.V., priority 2021, published 2024)
pIC50: −log10 of the molar value.

Key:
[1] = biological target: human AT2R fused to Cb23 (Homo sapiens, UniProt P50052); assay: Radioligand binding assay, displacement of 125I-[Sar1, Ile8]-Angiotensin II, hAT2R Cb23; details: displacement of 125I-[Sar1, Ile8]-Angiotensin II, human AT2R fused to Cb23, HEK-293 cell membrane preparations; read-out: Binding affinity on hAT2R_Cb23 IC50
Sequence of human AT2R fused to Cb23 (P50052 whole entry, looked up, the tested form may be a part): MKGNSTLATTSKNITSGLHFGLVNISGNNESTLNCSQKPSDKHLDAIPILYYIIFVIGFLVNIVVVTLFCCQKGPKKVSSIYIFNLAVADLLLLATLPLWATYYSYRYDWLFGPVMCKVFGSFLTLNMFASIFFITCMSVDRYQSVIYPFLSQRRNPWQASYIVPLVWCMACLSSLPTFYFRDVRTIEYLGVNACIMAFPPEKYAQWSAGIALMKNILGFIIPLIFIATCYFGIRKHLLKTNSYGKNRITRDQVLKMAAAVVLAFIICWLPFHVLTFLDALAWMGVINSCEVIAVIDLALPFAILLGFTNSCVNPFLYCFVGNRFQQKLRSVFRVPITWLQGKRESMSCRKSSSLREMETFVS
Method in brief: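 Membranes from HEK-293 cells expressing human AT2R fused to Cb23 were incubated with 0.05 nM 125I-[Sar1, Ile8]-Angiotensin II in 100 μL buffer (50 mM Tris, 5 mM MgCl2, 1 mM EDTA, 0.1% BSA, pH 7.4) for one hour at 25° C. Ligands were tested as eight-point dose-response curves in duplicate, with C21 and Angiotensin II as references.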

[2] = biological target: human AT1R (Homo sapiens (Human), UniProt P30556); assay: Counterscreen radioligand binding assay, displacement of 125I-[Sar1, Ile8]-Angiotensin II, hAT1R WT; details: for inhibition at 1 µM / inhibition at 10 µM: 125I-[Sar1, Ile8]-Ang II, semi-quantitative score; for inhibition at 1 µM: compound at 1 μM, read-out: % Displaced radioligand at 1 μM; for inhibition at 10 µM: compound at 10 μM, read-out: % Displaced radioligand at 10 μM; for pIC50: HEK-293 cell membranes, read-out: Binding affinity On hAT1R IC50
Sequence of human AT1R (P30556 whole entry): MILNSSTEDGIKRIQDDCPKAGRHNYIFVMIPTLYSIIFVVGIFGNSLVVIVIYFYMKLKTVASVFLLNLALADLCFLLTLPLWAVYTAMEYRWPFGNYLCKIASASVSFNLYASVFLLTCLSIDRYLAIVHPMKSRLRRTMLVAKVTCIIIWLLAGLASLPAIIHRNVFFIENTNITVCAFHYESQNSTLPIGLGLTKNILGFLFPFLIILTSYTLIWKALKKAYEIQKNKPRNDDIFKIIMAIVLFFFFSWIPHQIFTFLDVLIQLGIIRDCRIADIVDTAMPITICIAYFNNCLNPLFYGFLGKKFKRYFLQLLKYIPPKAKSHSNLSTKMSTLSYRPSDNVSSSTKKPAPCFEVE
Method in brief: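 Compounds displaced 0.05 nM 125I-[Sar1, Ile8]-Ang II from human AT1R in HEK-293 membranes (1 h, 25° C; Tris/MgCl2/EDTA/BSA buffer, pH 7.4). Readout was filtration and scintillation counting, with non-specific binding set by 10 μM [Sar1]-Ang II. Values are % displacement at 1 μM and […], or IC50 from eight-point four-parameter fits.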

[3] = Liver microsomal stability, rat; format: in vitro ADME; details: male, pH 7.4, liver microsomes
Description: (§1) Mouse hepatic microsomes were isolated from pooled (50), perfused livers of male Balb/c mice. Rat hepatic microsomes were isolated from pooled (15), perfused livers of male Wistar rats. Isolation was performed according to the standard protocol (Hill, J. R. in Current Protocols in Pharmacology 7.8.1-7.8.11, Wiley Interscience, 2003). The batches of microsomes were tested for quality control using Imipramine, Propranolol and Verapamil as reference compounds.
(§2) Microsomal incubations were carried out in 96-well plates in 5 aliquots of 40 μL each (one for each time point). Liver microsomal incubation medium contained PBS (100 mM, pH 7.4), MgCl2 (3.3 mM), NADPH (3 mM), glucose-6-phosphate (5.3 mM), glucose-6-phosphate dehydrogenase (0.67 units/ml) with 0.42 mg of liver microsomal protein per ml. Control incubations were performed replacing the NADPH-cofactor system with PBS. Test compound (2 μM, final solvent concentration 1.6%) was incubated with microsomes at 37° C., shaking at 100 rpm. Incubations were performed in duplicates. Five time points over 40 minutes have been analyzed. The reactions were stopped by adding 12 volumes of 90% acetonitrile-water to incubation aliquots, followed by protein sedimentation by centrifuging at 5500 rpm for 3 minutes. […]. Supernatants were analyzed using the HPLC system coupled with tandem mass spectrometer (API3000 PE Sciex). Acquisition and analysis of the data were performed using Analyst 1.5.2 software (PE Sciex). The elimination constant (kel), half-life (t½) and intrinsic clearance (Clint) were determined in plot of […] versus time, using linear regression analysis:
(§3) Mouse hepatic microsomes were isolated from pooled, perfused livers of male CD1 mice. Rat hepatic microsomes were isolated from pooled, perfused livers of male Sprague Dawley rats. Dog hepatic microsomes were isolated from pooled, perfused livers of male Beagle dogs. The batches of microsomes were tested for quality control using Testosterone, Propranolol and Caffeine as reference compounds.
(§4) A 10 mM stock solution of compound in DMSO is diluted three-fold in DMSO. This pre-diluted compound solution is then further diluted to 2 μM in a 50 mM phosphate buffer (PBS, pH 7.4) and pre-warmed at 37° C. This compound dilution is mixed F2 with microsomal/cofactor mix at 37° C. under shaking at 300 rpm. Final reaction conditions are: 100 μL incubation volume, 1 μM of test compound (in duplicate), <0.1% DMSO, 0.5 mg/mL microsomes, 0.6 U/mL Glucose-6-phosphate-dehydrogenase (G6PDH, Roche, 10127671001), 3.3 mM MgCl2 (Sigma, M2670), 3.3 mM glucose-6-phosphate (Sigma, G-7879) and 1.3 mM NADP+ (Sigma, N-0505).
(§5) After 60 min of incubation at 300 rpm and 37° C., the reaction was stopped with 3 volumes of STOP solution (acetonitrile/MeOH 2/1 with diclofenac as internal standard). For the time point zero, 3 volumes of STOP solution were added to the compound dilution before the microsome mix was added. Six time points over 60 minutes have been analyzed. The samples of all time points were centrifuged, filtered and the supernatant analyzed by LCMS/MS (systems API4000).
(§6) The instrument responses (peak areas/IS peak area) were referenced to the zero time-point samples (considered as 100%) in order to determine the percentage of compound remaining.
(§7) Testosterone (1 μM) and Propranolol and Caffeine (1 μM) were used as reference compounds, being unstable and stable compounds respectively. If the microsomal stability values for these controls are not in the range determined by the historical data, the assay is not validated. The solubility of the compound in the final test concentration in 50 mM buffer pH 7.4 is checked by microscope to indicate whether precipitation is observed or not. If a precipitate is observed, no data of microsomal stability is generated.

[4] = Liver microsomal stability, dog; format: in vitro ADME; details: male, Beagle, pH 7.4, liver microsomes
Description: as §3, §4, §5, §6, §7

[5] = Liver microsomal stability, human; format: in vitro ADME; details: pH 7.4, liver microsomes
Description: as §2, §4, §5, §6, §7

[6] = Liver microsomal stability, mouse; format: in vitro ADME; details: male, pH 7.4, liver microsomes
Description: as §1, §2, §3, §4, §5, §6, §7

[7] = biological target: CYP2D6 (Homo sapiens (Human), UniProt P10635); assay: CYP inhibition, CYP2D6; format: in vitro ADME; details: CYP 2D6, ref. inhibitor conc. 0.5 μM
Sequence of CYP2D6 (P10635 whole entry): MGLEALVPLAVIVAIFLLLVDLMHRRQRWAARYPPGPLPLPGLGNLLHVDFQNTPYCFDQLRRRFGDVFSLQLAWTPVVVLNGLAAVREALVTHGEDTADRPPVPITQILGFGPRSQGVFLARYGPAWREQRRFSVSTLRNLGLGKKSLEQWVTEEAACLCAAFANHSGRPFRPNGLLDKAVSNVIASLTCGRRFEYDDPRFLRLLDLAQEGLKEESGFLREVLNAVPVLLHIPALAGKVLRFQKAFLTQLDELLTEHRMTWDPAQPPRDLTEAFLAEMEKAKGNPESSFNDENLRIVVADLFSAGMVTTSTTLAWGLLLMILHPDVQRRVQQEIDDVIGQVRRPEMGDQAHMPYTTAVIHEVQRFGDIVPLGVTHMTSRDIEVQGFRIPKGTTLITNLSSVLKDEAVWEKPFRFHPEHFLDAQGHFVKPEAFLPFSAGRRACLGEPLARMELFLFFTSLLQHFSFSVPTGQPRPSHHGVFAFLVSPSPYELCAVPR
Description: The aim of this assay is to determine the inhibitory potential of a test compound. A major concern for drug-drug-interaction is cytochrome P450 inhibition. Reversible CYP inhibition was determined in human liver microsomes using specific probe substrates for human cytochrome P450 isoenzymes CYP1A2, 2C9, 2C19, 2D6 and 3A4. […]
A 10 mM stock solution of test compound is prepared in methanol. This stock is further serially diluted 1:3 in methanol and then added to mixture containing 50 mM potassium phosphate buffer pH7.4, human liver microsomes (BD Gentest) and probe substrate. After pre-warming 5 min at 37° C., the reaction is started by adding co-factor mix ([…] glucose-6-phosphate, 1.7 mg/mL NADP, 6 U/mL of glucose-6-phosphate dehydrogenase), resulting in a final concentration of test compound at 10 μM (2% MeOH).
Final concentrations of co-factor mix components are as follows: 1.56 mg/mL glucose-6-phosphate, 0.34 mg/mL NADP, 1.2 U/mL of glucose-6-phosphate dehydrogenase.
After incubation at 37° C., the reaction (aliquot of 50 μL) is terminated with 150 μL CH3CN:MeOH (2:1) solution with internal standard (warfarin for 2C9, diclofenac for all other tested isoforms). Samples are centrifuged and the supernatant fractions analyzed by LC-MS/MS.
The instrument responses (ratio of test compound and internal standard peak areas) are referenced to those for solvent controls (assumed as 100%) in order to determine the percentage reduction in probe metabolism. Percent of control activity vs. concentration plots are generated and fitted using GraphPad Prism software to generate IC50.

[8] = Metabolic stability in hepatocytes, rat; format: in vitro ADME; details: hepatocytes (cryopreserved), read-out: Rat Clint (μL/min/10^6 cells)
Description: The aim of this assay is to determine the metabolic stability of the compound in hepatocytes (cryopreserved) of different species (mouse CD1, rat Sprague Dawley, dog Beagle). Low hepatocyte stability may result in the formation of unwanted metabolites, high clearance, and therefore is not desirable. The decrease in parent was assessed by measuring the percentage remaining by LC-MS/MS analysis. The batches of hepatocytes were tested for quality control using Testosterone, Umbelliferone and Caffeine as reference compounds.
A 10 mM stock solution of test compound in DMSO was first diluted in DMSO to 3 mM, and then in modified Krebs-Henseleit buffer (Sigma, K3753) to 5 μM. This compound dilution was added to a suspension of pooled cryopreserved hepatocytes (BioIVT) at 37° C. under gentle shaking. Final reaction conditions were: 1 μM of test compound, <0.1% DMSO, 0.5 million viable hepatocytes/mL, and 75 μL incubation volume.
After 0, 10, 20, 45, 90, 120 and 180 min of incubation, the reaction was terminated with 3 volumes of MeCN:MeOH (2:1) containing diclofenac as analytical internal standard. Samples were mixed, centrifuged and the supernatant analyzed by LC-MS/MS (systems API4000). The instrument responses (ratios of test compound and internal standard peak areas) were referenced to the zero time point samples (considered as 100%) in order to determine the percentage of compound remaining. Plots of percentage compound remaining were used to determine the intrinsic clearance in the hepatocyte incubations.
Testosterone (1 μM) and Umbelliferone (1 μM) and Caffeine (1 μM) were used as reference compounds, being unstable and stable compounds respectively. If the hepatocyte stability values for these controls are not in the range determined by the historical data, the assay is not validated.

Row | pIC50 [1] | inhibition at 1 µM [2] | inhibition at 10 µM [2] | microsomal CLint [3] | microsomal CLint at 1 µM [4] | microsomal CLint [5] | pIC50 [2] | microsomal CLint [6] | hepatocyte CLint [8] | Structure (SMILES) | inhibition at 25 min, 0.5 µM [7]
1 | 7.83 | < 30% | < 30% | 28.3 µL/min/mg | < 11.7 µL/min/mg | 97.6 µL/min/mg | – | – | – | Cc1cccnc1CN1CCN(c2cc(CC(C)C)cc(F)c2-c2nn[nH]n2)C[C@@H]1C [Compound A-228, (2S)-4-[3-fluoro-5-isobutyl-2-(2H-tetrazol-5-yl)phenyl]-2-methyl-1-[(3-methyl-2-pyridyl)methyl]piperazine] | –
2 | 9.05 | < 30% | < 30% | 19 µL/min/mg | – | 18 µL/min/mg | 4.47 | – | 2 µL/min/1e6 cells | CC(C)Cc1cc(F)c(-c2nn[nH]n2)c(N2CC(C)N(Cc3cccnn3)C(C)C2)c1 (stereo not drawn) [Compound A-184, 3-[[4-[3-fluoro-5-isobutyl-2-(2H-tetrazol-5-yl)phen-yl]-2,6-dimethyl-piperazin-1-yl]-methyl]pyridazine] | –

Further lines, the compound ahead of its results:

Row | Structure (SMILES) | pIC50 [1] | inhibition at 1 µM [2] | inhibition at 10 µM [2] | microsomal CLint [3] | microsomal CLint at 1 µM [4] | microsomal CLint [5] | pIC50 [2] | microsomal CLint [6] | hepatocyte CLint [8] | inhibition at 25 min, 0.5 µM [7]
3 | COc1ccnc(CN2CCN(c3cc(CC(C)C)cc(F)c3-c3nn[nH]n3)C[C@@H]2C)c1 [Compound A-227, (2S)-4-[3-fluoro-5-isobutyl-2-(2H-tetrazol-5-yl)phenyl]-1-[(4-methoxy-2-pyridyl)methyl]-2-methyl-piperazine] | 8.06 | < 30% | < 30% | 22.3 µL/min/mg | < 11.7 µL/min/mg | 16.5 µL/min/mg | – | – | – | –
4 | CC(C)Cc1ccc(-c2nn[nH]n2)c(N2CCN(Cc3nc4ccccc4s3)CC2)c1 [Compound A-48, 2-[[4-[5-isobutyl-2-(2H-tetrazol-5-yl)-phenyl]piperazin-1-yl]methyl]-1,3-benzothiazole] | 6.20 | < 30% | 30 to 50% | 13 µL/min/mg | – | 32 µL/min/mg | 4.56 | 14 µL/min/mg | – | –
5 | C=C[C@H]1C[N@@]2CC[C@H]1C[C@@H]2[C@@H](O)c1ccnc2ccc(OC)cc12 [quinidine, reference compound] | – | – | – | – | – | – | – | – | – | 87.3%
6 | Cc1ccnc(CN2CCN(c3cc(CC(C)C)cc(F)c3-c3nn[nH]n3)C[C@@H]2C)c1 [Compound A-229, (2S)-4-[3-fluoro-5-isobutyl-2-(2H-tetrazol-5-yl)phenyl]-2-methyl-1-[(4-methyl-2-pyridyl)methyl]piperazine] | 8.10 | < 30% | < 30% | 24.8 µL/min/mg | < 11.7 µL/min/mg | 21.6 µL/min/mg | – | – | – | –
7 | CCS(=O)(=O)NC(=O)c1ccccc1CN1CCN(c2nc3ccccc3s2)CC1 [Compound A-02, 2-[[4-(1,3-benzo-thiazol-2-yl)piper-azin-1-yl]methyl]-N-ethylsulfonyl-benzamide] | 5.21 | < 30% | < 30% | – | – | – | – | – | – | –
